# Assay results: ChEMBL document CHEMBL1147821, “P3 and P4 position analysis of vinyl ester pseudopeptide proteasome inhibitors” (Bioorg Med Chem Lett, 2006)
# Target: T1, Proteasome Macropain subunit MB1 (Homo sapiens, UniProt P28074)
# T1 sequence (P28074 whole entry): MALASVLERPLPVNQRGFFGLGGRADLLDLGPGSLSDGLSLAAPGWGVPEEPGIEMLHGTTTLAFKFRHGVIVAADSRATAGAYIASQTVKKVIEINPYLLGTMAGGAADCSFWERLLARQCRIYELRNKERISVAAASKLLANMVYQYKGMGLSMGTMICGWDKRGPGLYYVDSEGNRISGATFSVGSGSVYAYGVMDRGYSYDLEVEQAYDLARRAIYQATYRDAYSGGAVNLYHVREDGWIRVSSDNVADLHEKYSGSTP
# Description: Inhibition of chymotrypsin like activity of proteasome
row,SMILES,IC50 [µM]
1,CCOC(=O)/C=C/[C@H](CC(C)C)NC(=O)[C@H](CCC(N)=O)NC(=O)[C@H](Cc1ccccc1)NC(=O)c1cccc(O)c1C,2.23
2,CC(C)C[C@@H](/C=C/S(C)(=O)=O)NC(=O)[C@H](CC(C)C)NC(=O)[C@H](CC(C)C)NC(=O)OCc1ccccc1,0.061
3,CCOC(=O)/C=C/[C@H](CC(C)C)NC(=O)[C@H](CCC(N)=O)NC(=O)[C@@H](NC(=O)[C@@H](N)Cc1ccccc1)C(C)C,4.15
4,CCOC(=O)/C=C/[C@H](CC(C)C)NC(=O)[C@H](CCC(N)=O)NC(=O)[C@@H](NC(=O)[C@@H](N)Cc1ccc(O)cc1)C(C)C,4.32
5,CCOC(=O)/C=C/[C@H](CC(C)C)NC(=O)[C@H](CCC(N)=O)NC(=O)[C@@H](NC(=O)c1cccc(O)c1C)C(C)C,6.67
